The text below walks through data of US9169241B2, “Quinolinyloxyphenylsulfonamides” (Max-Planck-Gesellschaft Zur Forderung der Wissenschaften …, priority 2009, dated 2015).

Data set [1] concerns U118. In words: Matrigel outgrowth assay/branching assay. The class given is cell-based. The following applies: Table Vb, read-out: Total branching inhibition in Matrigel U118. Summed up: (§1)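 Matrigel 3 mg/ml, polymerized 1 h 37° C; 5000 cells/well + cmpd 3.125/1.56/0.78 μM or DMSO. Imaged 48/72/96 h, 5× objective. Positive = total branching block.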
Data set [2] deals with Hs578T. In words: Matrigel outgrowth assay/branching assay. The following applies: Homo sapiens, Hs-578T; HS578T cell line; Table Ib; read-out: Total branching inhibition in Matrigel HS578T. It is filed as cell-based. Summed up:
as §1

Data set [3] deals with SF126. The data set is described as follows: Matrigel outgrowth assay/branching assay. The following applies: Homo sapiens, SF-126, Table Vb, read-out: Total branching inhibition in Matrigel SF126. It is filed as cell-based. Summed up: as §1
A further data set deals with A172. The data set is described as follows: Matrigel outgrowth assay/branching assay. It is filed as cell-based. To be noted: Homo sapiens, A 172, Table Vb, read-out: Total branching inhibition in Matrigel A172. Summed up:
as §1

Data set [4] relates to Hs578T. In words: Wound healing migration assay. The class given is cell-based. The following applies: Homo sapiens, Hs-578T; HS578T cell line; Table Ib. Summed up: (§2)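 Compound exposure at 12.5, 6.25 and 3.125 μM, with DMSO control, on scratch-wounded monolayers (150000 cells/24 well, overnight). Wound closure imaged by microscopy, fixed with crystal violet after 48 h or 72 h depending on cell line; IC50 is the concentration giving 50% wound size between t0 and t48/t72.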

The next data set deals with indicated cell line. The data set is described as follows: Wound healing migration assay (Table IV). The following applies: compounds at 12.5, 6.25, 3.125 μM, 48 h-72 h. The class given is cell-based. In a few lines:
as §2

In data set [5] the test system is U118. The data set is described as follows: Cell vitality assay (ATP assay, CellTiter-Glo). The class given is cell-based. Summed up:
(§3)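 Luminescent ATP read-out of viable cells; IC50 = concentration at which ATP falls to 50% of DMSO control. Cells seeded at 1000/well, treated 72 h with seven concentrations from 0.195 to 12.5 μM.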

Data set [6] has as its system Hs578T. The data set is described as follows: Cell vitality assay (ATP assay, CellTiter-Glo). The class given is cell-based. To be noted: Homo sapiens, Hs-578T; HS578T cell line, 72 h; Table Ib; read-out: IC50 ATP-Assay HS578T after 72 h. In a few lines:
as §3
Background: ATP-based viability assays read luminescence as a measure of living cells.

The test system of data set [7] is SF126. In words: Cell vitality assay (ATP assay, CellTiter-Glo). The class given is cell-based. The following applies: Homo sapiens, SF-126. In a few lines:
as §3

For a further data set, the system named is viable cells in culture. The data set is described as follows: Cell viability assay at 10 μM (CellTiter-Glo, Table VII).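 Also: graded A 0-20%; B 21-40%; C 41-60%; D over 60% viable cells relative to DMSO control.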 It is filed as cell-based. The following applies: compound 10 μM, 72 h. Summed up:
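Cells were seeded at 1000 cells/well in 96-well plates in 100 μl culture medium and incubated for 72 h with 10 μM compound or a DMSO control. ATP content, which reflects metabolically active and therefore viable cells, was then determined by CellTiter-Glo luminescence (Promega) per the manufacturer's instructions and expressed relative to the DMSO control.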

[8] abbreviates: Homo sapiens, A 172, A172 cells, read-out: IC50 Wound healing Assay A172.
[9] abbreviates: Homo sapiens, SF-126, SF126 cells, read-out: IC50 Wound healing Assay SF126.
[10] abbreviates: U118 cells, read-out: IC50 Wound healing Assay U118.
Setting [11] is: U118, 72 h, Table IIa, read-out: IC50 ATP-Assay after 72 h U118.
[12] abbreviates: SF126, 72 h, Table IIa, read-out: IC50 ATP-Assay after 72 h SF126.
Where [13] appears, read: Homo sapiens, C8161 cells, read-out: IC50 Wound healing Assay C8161.
Where [14] appears, read: cell vitality assay, U118, Table IIc, read-out: IC50 U118.
[15] abbreviates: cell vitality assay, SF126, Table IIb, read-out: IC50 SF126.

Read-outs that look alike come from different tables or passages of the source.

By melting point is commonly meant the temperature of the solid-liquid transition. `COc1cc2c(Oc3ccc(NS(=O)(=O)c4c(Cl)cccc4Cl)cc3F)ccnc2cc1OCCCN1CCCCC1` [Example 6, 2,6-Dichloro-N-{3-fluoro-4-[6-methoxy-7-(3-piperidin-1-yl-propoxy)-quinolin-4-yloxy]-phenyl}-benzenesulfonamide] showed a melting point of 206 to 208 °C. In the data set on U118 [1], the IC100 is not above 12.5 µM. In the data set with Hs578T [2], the IC50 was not above 10 µM. The IC100 with SF126 [3] is not above 12.5 µM. In addition, in the data set with A172, the IC100 was more than 12.5 µM. The compound also returned an IC50 in the data set on Hs578T [4] not above 12.5 µM. For the same compound, the IC50 in the data set on indicated cell line (setting [8]) is not above 12.5 µM. The IC50 with indicated cell line (setting [9]) was not above 12.5 µM. In addition, the IC50 with indicated cell line (setting [10]) is not above 12.5 µM. Also, the IC50 in the data set on U118 [5] (setting [11]) was not above 12.5 µM. Also, in the data set on Hs578T [6], the IC50 is not above 12.5 µM. Also, the IC50 in the data set with SF126 [7] (setting [12]) was not above 12.5 µM.
Turning to `COc1cc2c(Oc3ccc(NS(=O)(=O)c4cc(F)ccc4F)cc3F)ccnc2cc1OCCCN1CCN(C)CC1` [Example 12, 2,5-Difluoro-N-(3-fluoro-4-{6-methoxy-7-[3-(4-methyl-piperazin-1-yl)-propoxy]-quinolin-4-yloxy}-phenyl)-benzenesulfonamide], the IC100 with U118 [1], in the data set on SF126 [3] and with A172 was not above 12.5 µM throughout. The IC50 in the data set on Hs578T [2] is not above 10 µM; with Hs578T [4], not above 12.5 µM; in the data set on indicated cell line (setting [8]), not above 12.5 µM; with indicated cell line (setting [9]), not above 12.5 µM; with indicated cell line (setting [13]) it was not above 12.5 µM; in the data set on indicated cell line (setting [10]), not above 12.5 µM. For the same compound, the IC50 in the data set on U118 [5] (setting [11]), with U118 [5] (setting [14]), in the data set with Hs578T [6], with SF126 [7] (setting [12]) and with SF126 [7] (setting [15]) was not above 12.5 µM in each case. In addition, the viability at 10 µM lay in the range of 21 to 40% in the data set with viable cells in culture (Homo sapiens, HCT-116, HCT116 def, read-out: percentage (%) of viable cells HCT 116def); 21 to 40% with viable cells in culture (Homo sapiens, HCT-116, HCT116 wt, read-out: percentage (%) of viable cells HCT 116wt); 21 to 40% in the data set on viable cells in culture (Homo sapiens, HT-29, HT29, read-out: percentage (%) of viable cells HT29); 0 to 20% in the data set on viable cells in culture (Homo sapiens, NCI-H358, H358, read-out: percentage (%) of viable cells H358); 21 to 40% in the data set with viable cells in culture (Homo sapiens, NCI-H1650, H1650, read-out: percentage (%) of viable cells H1650); 41 to 60% in the data set on viable cells in culture (Homo sapiens, NCI-H1666, H1666, read-out: percentage (%) of viable cells H1666). Further, the viability at 10 µM in the data set with viable cells in culture (Homo sapiens, NCI-H1975, H1975, read-out: percentage (%) of viable cells H1975) was 41 to 60%; in the data set on viable cells in culture (Homo sapiens, NCI-H1993, H1993, read-out: percentage (%) of viable cells H1993), 41 to 60%; in the data set with viable cells in culture (Homo sapiens, A549, read-out: percentage (%) of viable cells A549), more than 60%; in the data set with viable cells in culture (Homo sapiens, HCC827, read-out: percentage (%) of viable cells HCC827), 21 to 40%; with viable cells in culture (Homo sapiens, SW480, read-out: percentage (%) of viable cells SW480) it was 21 to 40%; in the data set on viable cells in culture (RKO, read-out: percentage (%) of viable cells RKO), 0 to 20%.
On to `COc1cc2c(Oc3ccc(NS(=O)(=O)c4ccccc4C(F)(F)F)cc3F)ccnc2cc1OCCCN1CCN(C)CC1` [Example 24, N-(3-Fluoro-4-{6-methoxy-7-[3-(4-methyl-piperazin-1-yl)-propoxy]-quinolin-4-yloxy}-phenyl)-2-trifluoromethyl-benzenesulfonamide], for which the melting point fell in the range of 102 to 106 °C. Besides, the IC100 in the data set on U118 [1] was not above 12.5 µM. Besides, the IC100 in the data set with SF126 [3] is not above 12.5 µM. For the same compound, the IC100 in the data set on A172 was not above 12.5 µM. Also, the IC50 in the data set with indicated cell line (setting [13]) was not above 12.5 µM. The IC50 in the data set with U118 [5] (setting [14]) fell in the range of 12.5 to 50 µM. Besides, the IC50 in the data set with SF126 [7] (setting [15]) is not above 12.5 µM.
Consider `COc1cc2c(Oc3ccc(NS(=O)(=O)c4c(F)cccc4F)cc3F)ccnc2cc1OCCCN1CCN(C)CC1` [Example 110, 2,6-Difluoro-N-(3-fluoro-4-{6-methoxy-7-[3-(4-methyl-piperazin-1-yl)-propoxy]-quinolin-4-yloxy}-phenyl)-benzenesulfonamide], for which the IC100 in the data set on U118 [1] was not above 12.5 µM; in the data set with SF126 [3], not above 12.5 µM; with A172, more than 12.5 µM. For the same compound, the IC50 with Hs578T [2] is not above 10 µM; in the data set with Hs578T [4], not above 12.5 µM; in the data set on indicated cell line (setting [8]) it was not above 12.5 µM; with indicated cell line (setting [9]), not above 12.5 µM; with indicated cell line (setting [10]), not above 12.5 µM; in the data set on U118 [5] (setting [11]) it was not above 12.5 µM. The IC50 in the data set with Hs578T [6] and in the data set on SF126 [7] (setting [12]) was not above 12.5 µM each time.
